Conditions: for mass density: 101.33 kPa, Liquid, Levitation methods

[Ti] [titanium]
Conditions	mass density [kg/m3]
1350 K	4235
1400 K	4223
1450 K	4211
1500 K	4200
1550 K	4188
1600 K	4176
1650 K	4164
1668 K	4160
1700 K	4152

Conditions	Normal melting temperature [°C]
Crystal, Heating curve in electrostatic levitation apparatus	1668.1

Reference: the NIST ThermoML archive (doi:10.1016/j.jct.2013.03.012)
